Measured values reported in ChEMBL document CHEMBL5214940, “New potent ciprofloxacin-uracil conjugates as DNA gyrase and topoisomerase IV inhibitors against methicillin-resistant Staphylococcus aureus” (Bioorg Med Chem, 2022).
Converted amounts (≈) assume the structure as drawn.

Legend:
Escherichia coli = assay: Antibacterial activity against […] assessed as zone of inhibition by cup-plate agar diffusion method; format: functional
Klebsiella pneumoniae = assay: Antibacterial activity against Klebsiella pneumoniae ATCC10031 assessed as zone of inhibition by cup-plate agar diffusion method; format: functional
Pseudomonas aeruginosa = assay: Antibacterial activity against Pseudomonas aeruginosa ATCC27853 assessed as zone of inhibition by cup-plate agar diffusion method; format: functional
Staphylococcus aureus [1] = assay: Antibacterial activity against Staphylococcus aureus ATCC6538 assessed as zone of inhibition by cup-plate agar diffusion method; format: functional
Staphylococcus aureus [2] = assay: Antibacterial activity against methicillin-resistant Staphylococcus aureus AUMC 261 assessed as zone of inhibition by cup-plate agar diffusion method; format: functional
DNA gyrase = DNA gyrase (Escherichia coli, UniProt P0AES4+P0AES6); assay: Inhibition of Escherichia coli DNA gyrase supercoiling activity using […] as substrate incubated for 15 to 30 mins by agarose gel electrophoresis analysis; format: protein-complex assay
[3] = Inhibition of Escherichia coli topoisomerase 4 mediated relaxation of supercoiled pHOT1 DNA at expense of ATP hydrolysis by ethidium bromide staining based agarose gel electrophoresis

Row | SMILES | MIC (Escherichia coli) [µM] | MIC (Klebsiella pneumoniae) [µM] | MIC (Pseudomonas aeruginosa) [µM] | MIC (Staphylococcus aureus [1]) [µM] | MIC (Staphylococcus aureus [2]) [µM] | IC50 (DNA gyrase) [µM] | IC50 [3] [µM]
1 | CCCn1c(=O)cc(NC(=O)CN2CCN(c3cc4c(cc3F)c(=O)c(C(=O)O)cn4C3CC3)CC2)[nH]c1=O | 11.6 (≈ 6.25 µg/mL) | 11.6 (≈ 6.25 µg/mL) | > 100 | 18.5 (≈ 10 µg/mL) | – | – | –
2 | Cc1ccc(NC(=O)CSc2nc(NC(=O)CN3CCN(c4cc5c(cc4F)c(=O)c(C(=O)O)cn5C4CC4)CC3)cc(=O)[nH]2)cc1 | 18.9 (≈ 12.5 µg/mL) | 37.8 (≈ 25 µg/mL) | > 100 | > 100 | – | – | –
3 | N=C1N=C(SCC(=O)N2CCN(c3cc4c(cc3F)c(=O)c(C(=O)O)cn4C3CC3)CC2)NC(=O)/C1=C/c1ccc(Br)cc1 | 4.59 (≈ 3.13 µg/mL) | 9.19 (≈ 6.26 µg/mL) | > 100 | > 100 | – | – | –
4 | COc1cc(/C=C2\C(=N)N=C(SCC(=O)N3CCN(c4cc5c(cc4F)c(=O)c(C(=O)O)cn5C4CC4)CC3)NC2=O)ccc1O | 2.41 (≈ 1.56 µg/mL) | 4.81 (≈ 3.12 µg/mL) | > 100 | 7.58 (≈ 4.92 µg/mL) | 1.57 (≈ 1.02 µg/mL) | – | –
5 | COc1ccc(NC(=O)CSc2nc(NC(=O)CN3CCN(c4cc5c(cc4F)c(=O)c(C(=O)O)cn5C4CC4)CC3)cc(=O)[nH]2)cc1 | 4.61 (≈ 3.12 µg/mL) | 18.5 (≈ 12.5 µg/mL) | > 100 | > 100 | – | – | –
6 | CCCCSc1nc(NC(=O)CN2CCN(c3cc4c(cc3F)c(=O)c(C(=O)O)cn4C3CC3)CC2)cc(=O)[nH]1 | 2.73 (≈ 1.56 µg/mL) | 5.47 (≈ 3.12 µg/mL) | > 100 | 17.5 (≈ 10 µg/mL) | – | – | –
7 | O=C(CSc1nc(NC(=O)CN2CCN(c3cc4c(cc3F)c(=O)c(C(=O)O)cn4C3CC3)CC2)cc(=O)[nH]1)Nc1ccccc1 | 9.66 (≈ 6.26 µg/mL) | 19.3 (≈ 12.5 µg/mL) | > 100 | > 100 | – | – | –
8 | Cn1c(NC(=O)CN2CCN(c3cc4c(cc3F)c(=O)c(C(=O)O)cn4C3CC3)CC2)cc(=O)n(C)c1=O | 1.48 (≈ 0.779 µg/mL) | 2.97 (≈ 1.56 µg/mL) | 2.97 (≈ 1.56 µg/mL) | > 100 | – | – | –
9 | COc1cc(/C=C2\C(=N)N=C(SCC(=O)N3CCN(c4cc5c(cc4F)c(=O)c(C(=O)O)cn5C4CC4)CC3)NC2=O)cc(OC)c1OC | 4.51 (≈ 3.12 µg/mL) | 9.03 (≈ 6.26 µg/mL) | > 100 | 4.25 (≈ 2.94 µg/mL) | 0.096 (≈ 0.0665 µg/mL) | – | –
10 | N=C1N=C(SCC(=O)N2CCN(c3cc4c(cc3F)c(=O)c(C(=O)O)cn4C3CC3)CC2)NC(=O)/C1=C/c1ccc(Cl)cc1 | 4.91 (≈ 3.13 µg/mL) | 4.91 (≈ 3.13 µg/mL) | > 100 | > 100 | – | – | –
11 | N=C1N=C(SCC(=O)N2CCN(c3cc4c(cc3F)c(=O)c(C(=O)O)cn4C3CC3)CC2)NC(=O)/C1=C/c1ccc(F)cc1 | 5.03 (≈ 3.12 µg/mL) | 20.2 (≈ 12.5 µg/mL) | > 100 | > 100 | – | – | –
12 | Cn1c(=O)cc(NC(=O)CN2CCN(c3cc4c(cc3F)c(=O)c(C(=O)O)cn4C3CC3)CC2)[nH]c1=O | 3.05 (≈ 1.56 µg/mL) | 6.1 (≈ 3.13 µg/mL) | > 100 | > 100 | – | – | –
13 | COc1ccc(/C=C2\C(=N)N=C(SCC(=O)N3CCN(c4cc5c(cc4F)c(=O)c(C(=O)O)cn5C4CC4)CC3)NC2=O)cc1OC | 4.71 (≈ 3.12 µg/mL) | 4.71 (≈ 3.12 µg/mL) | 2.97 (≈ 1.97 µg/mL) | > 100 | – | – | –
14 | CSc1nc(NC(=O)CN2CCN(c3cc4c(cc3F)c(=O)c(C(=O)O)cn4C3CC3)CC2)cc(=O)[nH]1 | 2.95 (≈ 1.56 µg/mL) | 5.91 (≈ 3.12 µg/mL) | > 100 | 2.37 (≈ 1.25 µg/mL) | 0.046 (≈ 0.0243 µg/mL) | 5.72 | 7.77
15 | C=CCSc1nc(NC(=O)CN2CCN(c3cc4c(cc3F)c(=O)c(C(=O)O)cn4C3CC3)CC2)cc(=O)[nH]1 | 11.3 (≈ 6.26 µg/mL) | 22.6 (≈ 12.5 µg/mL) | > 100 | 18.1 (≈ 10 µg/mL) | – | – | –
16 | O=C(CSc1nc(NC(=O)CN2CCN(c3cc4c(cc3F)c(=O)c(C(=O)O)cn4C3CC3)CC2)cc(=O)[nH]1)Nc1ccc(Cl)cc1 | 18.4 (≈ 12.5 µg/mL) | 4.58 (≈ 3.12 µg/mL) | > 100 | 14.7 (≈ 10 µg/mL) | 7.22 (≈ 4.93 µg/mL) | – | –
17 | CCCSc1nc(NC(=O)CN2CCN(c3cc4c(cc3F)c(=O)c(C(=O)O)cn4C3CC3)CC2)cc(=O)[nH]1 | 5.61 (≈ 3.12 µg/mL) | 11.2 (≈ 6.26 µg/mL) | > 100 | 18 (≈ 10 µg/mL) | – | – | –
18 | N=C1N=C(SCC(=O)N2CCN(c3cc4c(cc3F)c(=O)c(C(=O)O)cn4C3CC3)CC2)NC(=O)/C1=C/c1ccccc1 | 1.3 (≈ 0.783 µg/mL) | 5.18 (≈ 3.12 µg/mL) | 2.59 (≈ 1.56 µg/mL) | > 100 | – | – | –
19 | COc1ccc(/C=C2\C(=N)N=C(SCC(=O)N3CCN(c4cc5c(cc4F)c(=O)c(C(=O)O)cn5C4CC4)CC3)NC2=O)cc1 | 4.94 (≈ 3.13 µg/mL) | 2.47 (≈ 1.56 µg/mL) | > 100 | 15.8 (≈ 10 µg/mL) | 2.43 (≈ 1.54 µg/mL) | – | –
20 | O=C(CN1CCN(c2cc3c(cc2F)c(=O)c(C(=O)O)cn3C2CC2)CC1)Nc1cc(=O)[nH]c(=O)[nH]1 | 0.78 (≈ 0.389 µg/mL) | 1.57 (≈ 0.783 µg/mL) | > 100 | 1.25 (≈ 0.623 µg/mL) | 0.031 (≈ 0.0155 µg/mL) | 1.72 | 4.36
21 | O=C(O)c1cn(C2CC2)c2cc(N3CCNCC3)c(F)cc2c1=O [CIPROFLOXACIN] | 0.6 (≈ 0.199 µg/mL) | 1.21 (≈ 0.401 µg/mL) | 0.6 (≈ 0.199 µg/mL) | 7.58 (≈ 2.51 µg/mL) | 0.57 (≈ 0.189 µg/mL) | – | 8.16
